US20200308299A1, “ANTI-GPC-1 ANTIBODY” (National University Corporation Kochi University, priority 2017, published 2020)
Non-standard residues stand in square brackets, D forms with d. Residues, ends and D or L forms follow the SMILES beside them. *: point of attachment. Dolaproine = CO[C@@H]([C@@H]1CCCN1)[C@@H](C)C(=O)O; Dil = CC[C@H](C)[C@H](NC)[C@@H](CC(=O)O)OC; X1 = C[C@@H](N*)[C@@H](O)c1ccccc1; NMeV = CN[C@H](C(=O)O)C(C)C

Test system: TE14 cells
Experiment: Anticancer agent sensitivity of TE14 cells (CellTiter-Glo cell viability)
Format: cell-based
Conditions: cultured 6 days
Experimental: 2000 TE14 cells were added to a 96-well plate at 90 μl. The cells were cultured overnight at 37° C. in a 5% CO2 incubator. The next day, 10 μl of an anticancer agent concentrated 10-fold relative to the final concentration was added to each well, so that the total amount was 100 μl. The cells were cultured for 6 days at 37° C. in a 5% CO2 incubator. The cell viability was measured by using a CellTiter-Glo Luminescent Cell Viability Assay reagent to detect the amount of ATP. RPMI1640+10% FBS+1% PS was used as the medium. MMAE (model number: 474645-27-7, ALB Technology) and MMAF (model number: 745017-94-1, ALB Technology) were used as the anticancer agent.

| Compound | IC50 |
| --- | --- |
| CC[C@H](C)[C@@H]([C@@H](CC(=O)N1CCC[C@H]1[C@H](OC)[C@@H](C)C(=O)N[C@@H](Cc1ccccc1)C(=O)O)OC)N(C)C(=O)[C@@H](NC(=O)[C@@H](NC)C(C)C)C(C)C [MMAF, monomethyl auristatin-F] (H-[NMeV]V[Dil][Dolaproine]F-OH) | 0.0268 µM |
| CC[C@H](C)[C@@H]([C@@H](CC(=O)N1CCC[C@H]1[C@H](OC)[C@@H](C)C(=O)N[C@H](C)[C@@H](O)c1ccccc1)OC)N(C)C(=O)[C@@H](NC(=O)[C@@H](NC)C(C)C)C(C)C [MMAE, monomethyl auristatin-E] (H-[NMeV]V[Dil][Dolaproine]-X1) | 0.000926 µM |
